Where two headings read alike, the source gives them in different places.
How the values were obtained:
[1] = molecular target: GSK3α (GST-full length GSK3α) (Homo sapiens (Human), UniProt P49840); experiment: GSK3α TR-FRET kinase assay; format: biochemical
Outline: (§1)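 Readout: anti-pSer641 Tb antibody/streptavidin-d2 signal after 60 min, expressed as 665/615 ratio and fitted versus log concentration for IC50. Enzyme: 1 nM GST-GSK3 (α or β), compound-preincubated 30 min. Conditions: pH 7.5 Tris buffer with MgCl2, DTT, BSA; ATP at 4 or 2 μM, or 1 mM; 100 min.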

[2] = molecular target: GSK3b (GST-full length GSK3b) (Homo sapiens (Human), UniProt P49841); experiment: GSK3b TR-FRET kinase assay; format: biochemical
Chain of GSK3b (GST-full length GSK3b) (P49841 whole entry): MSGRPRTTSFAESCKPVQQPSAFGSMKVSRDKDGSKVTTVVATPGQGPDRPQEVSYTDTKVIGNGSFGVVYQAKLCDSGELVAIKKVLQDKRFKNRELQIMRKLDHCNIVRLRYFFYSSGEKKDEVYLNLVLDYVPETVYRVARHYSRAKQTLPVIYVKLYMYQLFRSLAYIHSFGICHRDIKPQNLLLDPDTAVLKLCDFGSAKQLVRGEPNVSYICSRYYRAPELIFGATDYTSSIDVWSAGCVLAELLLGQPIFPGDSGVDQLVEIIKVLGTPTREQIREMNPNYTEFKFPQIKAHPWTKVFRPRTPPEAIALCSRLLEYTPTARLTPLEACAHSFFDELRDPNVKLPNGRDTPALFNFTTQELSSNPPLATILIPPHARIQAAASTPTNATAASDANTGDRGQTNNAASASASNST
Outline: as §1

[3] = 1 nM GSK3α, 4 μM ATP, 30 minute preincubation, Table 16, read-out: GSK3-A TR-FRET BIOCHEMICAL (TR-FRET)
[4] = 1 nM GSK3b, 2 μM ATP, 30 minute preincubation, Table 16, read-out: GSK3-B TR-FRET BIOCHEMICAL (TR-FRET)
[5] = read-out: GSK3-A (TR-FRET 1 mM ATP), GMean, IC50, 1 mM ATP, geometric mean
[6] = read-out: GSK3-B (TR-FRET 1 mM ATP), GMean, IC50, 1 mM ATP, geometric mean
[7] = 1 nM GSK3α, 4 μM ATP, 30 minute preincubation, geometric mean, read-out: GSK3-A TR-FRET BIOCHEMICAL (TR-FRET), GMean, IC50
[8] = 1 nM GSK3b, 2 μM ATP, 30 minute preincubation, geometric mean, read-out: GSK3-B TR-FRET BIOCHEMICAL (TR-FRET), GMean, IC50
[9] = 1 nM GSK3α, 4 μM ATP, 30 minute preincubation, read-out: GSK3-A TR-FRET BIOCHEMICAL (TR-FRET), IC50
[10] = 1 nM GSK3b, 2 μM ATP, 30 minute preincubation, read-out: GSK3-B TR-FRET BIOCHEMICAL (TR-FRET), IC50

Chain of GSK3α (GST-full length GSK3α) (P49840 whole entry): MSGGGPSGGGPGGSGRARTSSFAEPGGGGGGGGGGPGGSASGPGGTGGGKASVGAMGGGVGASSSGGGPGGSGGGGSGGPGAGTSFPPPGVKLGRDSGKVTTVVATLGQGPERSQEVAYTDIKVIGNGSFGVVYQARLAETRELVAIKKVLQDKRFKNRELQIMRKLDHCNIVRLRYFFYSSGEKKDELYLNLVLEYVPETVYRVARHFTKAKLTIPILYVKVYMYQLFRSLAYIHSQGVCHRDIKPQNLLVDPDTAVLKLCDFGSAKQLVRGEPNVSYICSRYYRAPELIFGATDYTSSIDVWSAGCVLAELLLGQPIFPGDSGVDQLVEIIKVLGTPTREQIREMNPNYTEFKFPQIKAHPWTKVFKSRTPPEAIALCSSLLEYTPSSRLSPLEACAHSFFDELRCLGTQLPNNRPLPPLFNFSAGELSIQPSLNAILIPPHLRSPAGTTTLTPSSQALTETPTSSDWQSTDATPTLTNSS

Row | SMILES | IC50 [1, 7] [nM] | IC50 [2, 8] [nM] | other results
1 | CC[C@]1(c2cccc(-c3cc(C)nn3C)c2)C2=C(Nc3n[nH]cc31)[C@H](F)C(C)(C)CC2=O [Compound 947656] |  |  | IC50 [1, 3]: 100 to 1000 nM; IC50 [2, 4]: > 5000 nM
2 | CCC1(c2cccc(-c3c(C)cncc3C)c2)C2=C(CC(C)(C)CC2=O)Nc2n[nH]cc21 (stereo not shown) [Compound 947658] |  |  | IC50 [1, 5]: ≤ 100 nM; IC50 [2, 6]: 100 to 1000 nM
3 | CC[C@]1(c2cccc(Cc3ncccc3C(F)(F)F)c2)C2=C(CC(C)(C)CC2=O)Nc2n[nH]cc21 [Compound 947665] |  |  | IC50 [1, 3]: 1000 to 5000 nM; IC50 [2, 4]: > 5000 nM
4 | CCC1(c2cccc(N3CCCCC3)c2)C2=C(CC(C)(C)NC2=O)Nc2n[nH]c(C)c21 (stereo not shown) [Compound 947674] | ≤ 100 | 100 to 1000 | 
5 | CCC1(c2cccc(-c3ccnc4c3CCC4)c2)C2=C(CC(C)(C)NC2=O)Nc2n[nH]c(C)c21 (stereo not shown) [Compound 947675] | ≤ 100 | 100 to 1000 | 
6 | CCC1(c2cccc(-c3ccnc4c3CCC4)c2)C2=C(CC(C)(C)NC2=O)Nc2n[nH]cc21 (stereo not shown) [Compound 947676] | ≤ 100 | 100 to 1000 | 
7 | CCC1(c2cccc(-c3cn[nH]c3)c2)C2=C(CC(C)(C)NC2=O)Nc2n[nH]c(C(F)(F)F)c21 (stereo not shown) [Compound 947677] | ≤ 100 | ≤ 100 | 
8 | CC1CC(C(=O)N2CC3(C2)CC2(CO3)C3=C(CC(C)(C)CC3=O)Nc3n[nH]cc32)C1 (stereo not shown) [Compound 947732] |  |  | IC50 [1, 9]: 100 to 1000 nM; IC50 [2, 10]: 1000 to 5000 nM
9 | CC1CC(C(=O)N2CC3(C2)CC2(CO3)C3=C(CC(C)(C)CC3=O)Nc3n[nH]cc32)C1 (stereo not shown) [Compound 947733] |  |  | IC50 [1, 9]: ≤ 100 nM; IC50 [2, 10]: ≤ 100 nM
10 | CC1(C)CC(=O)C2=C(C1)Nc1n[nH]cc1[C@]21COC2(CN(C(=O)C3(F)CCC3)C2)C1 [Compound 947735] |  |  | IC50 [1, 9]: ≤ 100 nM; IC50 [2, 10]: ≤ 100 nM
11 | CC1(C)CC(=O)C2=C(C1)Nc1n[nH]cc1C21COC2(CN(C(=O)C3(F)CCC3)C2)C1 (stereo not shown) [Compound 947736] |  |  | IC50 [1, 9]: ≤ 100 nM; IC50 [2, 10]: 100 to 1000 nM
12 | CCC1(c2cccc(C(F)(F)F)c2)C2=C(CCN(c3ccc(F)cc3)C2=O)Nc2n[nH]cc21 (stereo not shown) [Compound 947748] | ≤ 100 | 100 to 1000 | 
13 | CCC1(c2cccc(-c3ccnc(C)c3)c2)C2=C(CC(C)(C)NC2=O)Nc2n[nH]c(C)c21 (stereo not shown) [Compound 947798] | ≤ 100 | 100 to 1000 | 
14 | CCC1(c2cccc(S(C)(=O)=O)c2)C2=C(CC(C)(C)NC2=O)Nc2n[nH]c(C(F)(F)F)c21 (stereo not shown) [Compound 947799] | ≤ 100 | ≤ 100 | 
15 | CCC1(c2cccc(S(=O)(=O)C(C)C)c2)C2=C(CC(C)(C)NC2=O)Nc2n[nH]c(C(F)(F)F)c21 (stereo not shown) [Compound 947800] | ≤ 100 | ≤ 100 | 
16 | CCC1(c2cccc(-c3cnn4c3CCCC4)c2)C2=C(CC(C)(C)NC2=O)Nc2n[nH]c(C(F)(F)F)c21 (stereo not shown) [Compound 947801] | ≤ 100 | ≤ 100 | 
17 | CCC1(c2cccc(-c3cnnn3C)c2)C2=C(CC(C)(C)CC2=O)Nc2n[nH]cc21 (stereo not shown) [Compound 947802] |  |  | IC50 [1, 3]: ≤ 100 nM; IC50 [2, 4]: ≤ 100 nM
18 | CC[C@@]1(c2cccc(S(=O)(=O)C3CC3)c2)C2=C(CC(C)(C)NC2=O)Nc2n[nH]cc21 [Compound 947803] | ≤ 100 | ≤ 100 | 
19 | CCC1(c2cccc(-c3cc(C)ncc3F)c2)C2=C(CC(C)(C)NC2=O)Nc2n[nH]cc21 (stereo not shown) [Compound 947804] | ≤ 100 | 100 to 1000 | 
20 | CC[C@]1(c2cccc(-c3ccncc3F)c2)C2=C(CC(C)(C)NC2=O)Nc2n[nH]c(C)c21 [Compound 947805] | 100 to 1000 | 1000 to 5000 | 
21 | CCC1(c2cccc(-c3cncn3C)c2)C2=C(CC(C)(C)NC2=O)Nc2n[nH]cc21 (stereo not shown) [Compound 947806] | ≤ 100 | ≤ 100 | 
22 | CC[C@]1(c2cccc(-c3cnn(C)c3C)c2)C2=C(CC(C)(C)NC2=O)Nc2n[nH]c(C(F)(F)F)c21 [Compound 947807] | ≤ 100 | 100 to 1000 | 
23 | CCC1(c2cccc(Oc3ncccn3)c2)C2=C(CC(C)(C)CC2=O)Nc2n[nH]cc21 (stereo not shown) [Compound 947808] |  |  | IC50 [1, 3]: ≤ 100 nM; IC50 [1, 5]: ≤ 100 nM; IC50 [2, 4]: ≤ 100 nM; IC50 [2, 6]: 100 to 1000 nM
24 | CC[C@]1(c2cccc(-c3cnn4c3CCCC4)c2)C2=C(CC(C)(C)NC2=O)Nc2n[nH]c(C)c21 [Compound 947809] | 100 to 1000 | 1000 to 5000 | 
25 | CC[C@]1(c2cccc(-c3ccnc(CCO)c3)c2)C2=C(CC(C)(C)CC2=O)Nc2n[nH]cc21 [Compound 947810] |  |  | IC50 [1, 3]: ≤ 100 nM; IC50 [2, 4]: 100 to 1000 nM
